Experimental data reported in patent US3965109A, “Certain aryl amino pyridines” (priority 1971, dated 1976).

How the values were obtained:
[1] = system: Phytophthora infestans (tomato); type: in vivo; details: 100 ppm spray and drench; 3 days
[2] = system: Aedes aegypti (mosquito larvae); assay: Pest toxicity test; type: in vivo; details: 0.01% by weight; water; 1 day
[3] = system: Pieris brassicae (cabbage white caterpillars); assay: Pest toxicity test; type: in vivo; details: 0.1% by weight, 2 days
Aphis fabae = assay: Pest toxicity test; type: in vivo; details: 0.1% by weight; broad bean; 2 days
[4] = system: Tetranychus telarius (red spider mites, adults); assay: Pest toxicity test; type: in vivo; details: 0.1% by weight; French bean; 3 days
[5] = system: Aedes aegypti (mosquito adults); assay: Pest toxicity test; type: in vivo; details: 0.01% by weight; plywood; 1 day
Xanthomonas malvacearum = assay: Antibacterial agar test (B3); type: cell-based; details: 50 ppm; 5 days
Method in brief: (§1)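 Bacterial growth on nutrient agar containing 50 ppm final test compound (added from an acetone solution or suspension) was scored 5 days after multipoint inoculation, using graded ratings. Plates were dried overnight before inoculation.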

Megoura viceae = assay: Pest toxicity test; type: in vivo; details: 0.1% by weight; broad bean; 2 days
Pseudomonas syringae = assay: Antibacterial agar test (B6); type: cell-based; details: 50 ppm; 5 days
Xanthomonas oryzae = type: cell-based; details: 50 ppm; 5 days
[6] = system: Tetranychus telarius (red spider mites, eggs); assay: Pest toxicity test; type: in vivo; details: 0.1% by weight; French bean; 3 days
[7] = system: Corynebacterium michiganense; assay: Antibacterial agar test (B2); type: cell-based; details: 50 ppm; 5 days
Method in brief: as §1

[8] = system: Plasmopara viticola (vine); assay: Fungicidal test against foliar disease C (foliage spray plus soil drench); type: in vivo; details: 100 ppm spray and drench; 10 days
Erwinia carotovora = assay: Antibacterial agar test (B4); type: cell-based; details: 50 ppm; 5 days
Uncinula necator (vine) = assay: Fungicidal test against foliar disease D (foliage spray plus soil drench); type: in vivo; details: 100 ppm spray and drench; 10 days
[9] = system: Plutella maculipennis (diamond back moth larvae); assay: Pest toxicity test; type: in vivo; details: in vivo
[10] = system: Piricularia oryzae (rice); type: in vivo; details: 100 ppm spray and drench; 7 days
[11] = system: Puccinia recondita (wheat); assay: Fungicidal test against foliar disease A (foliage spray plus soil drench); type: in vivo; details: 100 ppm spray and drench; 10 days
[12] = system: Meloidogyne incognita (nematodes); assay: Pest toxicity test; type: in vivo; details: 0.01% by weight; water; 1 day
Streptomyces scabies = assay: Antibacterial agar test (B7); type: cell-based; details: 50 ppm; 5 days
[13] = system: Phaedon cochleariae (mustard beetles); assay: Pest toxicity test; type: in vivo; details: in vivo
[14] = system: Agrobacterium tumifaciens; assay: Antibacterial agar test (B1); type: cell-based; details: 50 ppm; 5 days
[15] = system: Musca domestica (houseflies); assay: Pest toxicity test, contact test; type: in vivo; details: 0.1% by weight; milk/sugar; 2 days; flies sprayed directly
[16] = system: Agriolimax reticulatus (slugs); assay: Molluscicidal activity test; type: in vivo, Agriolimax reticulatus (Mull); details: pellet with 4% by weight; 6 days; 10°C
Method in brief: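 Slugs were starved for 24 hours, then housed two per dish, in duplicate, under high humidity at 10°C. They fed on pellets dried to contain 4% w/w of test compound. Mortality was scored on day 6.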

SMILES | Amount of disease grading, disease B (Table 4) [1] | Mortality grading (kill) [2] | Mortality grading (kill) [3] | Mortality grading (kill) (Aphis fabae) | Mortality grading (kill) [4] | Mortality grading (kill) [5] | Antibacterial activity grading B3 (Xanthomonas malvacearum) | Mortality grading (kill) (Megoura viceae) | Antibacterial activity grading B6 (Pseudomonas syringae) | Antibacterial activity grading B5 (Xanthomonas oryzae) | Mortality grading (kill) [6] | Antibacterial activity grading B2 [7] | Amount of disease grading, disease C (Table 4) [8] | Amount of disease grading, disease D (Table 4) (Uncinula necator (vine)) | Mortality grading (kill) [9] | Amount of disease grading, disease E (Table 4) [10] | Amount of disease grading, disease A (Table 4) [11] | Mortality grading (kill) [12] | Mortality grading (kill) [13] | Mortality grading (kill), contact test [15] | further results
N#Cc1c(F)c(F)c(Nc2c(Cl)c(F)nc(F)c2Cl)c(F)c1C#N [Compound 33, 3,5-Dichloro-4(3,4-dicyano-2,5,6-trifluoroanilino) 2,6-difluoropyridine] | 3 (0 to 5) | 0 (O represents less than 30% kill) | 3 (3 represents over 90% kill) | 0 (O represents less than 30% kill) | 3 (3 represents over 90% kill) | 2 (2 represents 60 - 90% kill) | 3 (0 to 5) | 0 (O represents less than 30% kill) | 3 (0 to 5) | 3 (0 to 5) | 3 (3 represents over 90% kill) | 3 (0 to 5) | 3 (0 to 5) | 2 (6 to 25) | 1 (key: O represents less than 30% kill; 1 represents 30 - 49% kill; 2 represents 60 - 90% kill; 3 represents over 90% kill; C indicates a chemosterilant effect.; A indicates an antifeeding effect.) | 3 (0 to 5) | 2 (6 to 25) | 0 (O represents less than 30% kill) | 0 (key: O represents less than 30% kill; 1 represents 30 - 49% kill; 2 represents 60 - 90% kill; 3 represents over 90% kill; C indicates a chemosterilant effect.; A indicates an antifeeding effect.) | – | Antibacterial activity grading B4 (Erwinia carotovora): 3 (0 to 5); Antibacterial activity grading B7 (Streptomyces scabies): 3 (0 to 5); Antibacterial activity grading B1 [14]: 3 (0 to 5)
O=[N+]([O-])c1cc(Cl)c(Nc2c(Cl)c(F)nc(F)c2Cl)cc1Cl [Compound 24, 3,5-Dichloro-2,6-difluoro-4(2,5-dichloro-4nitro-anilino)pyridine] | 3 (0 to 5) | 3 (3 represents over 90% kill) | 0 (O represents less than 30% kill) | 0 (O represents less than 30% kill) | 3 (3 represents over 90% kill) | 0 (O represents less than 30% kill) | 3 (0 to 5) | 0 (O represents less than 30% kill) | 3 (0 to 5) | 3 (0 to 5) | 0 (O represents less than 30% kill) | 3 (0 to 5) | 3 (0 to 5) | 3 (0 to 5) | 0 (key: O represents less than 30% kill; 1 represents 30 - 49% kill; 2 represents 60 - 90% kill; 3 represents over 90% kill; C indicates a chemosterilant effect.; A indicates an antifeeding effect.) | 0 (61 to 100) | 0 (61 to 100) | 0 (O represents less than 30% kill) | 0 (key: O represents less than 30% kill; 1 represents 30 - 49% kill; 2 represents 60 - 90% kill; 3 represents over 90% kill; C indicates a chemosterilant effect.; A indicates an antifeeding effect.) | 1 (1 represents 30 - 49% kill) | Antibacterial activity grading B4 (Erwinia carotovora): 3 (0 to 5); Antibacterial activity grading B7 (Streptomyces scabies): 3 (0 to 5); Antibacterial activity grading B1 [14]: 3 (0 to 5)
O=[N+]([O-])c1cc(C(F)(F)F)ccc1Nc1c(Cl)c(F)nc(F)c1Cl [Compound 16, 3,5-Dichloro-2,6-difluoro-4(2-nitro-4-trifluoromethylanilino) pyridine] | – | 0 (O represents less than 30% kill) | 0 (O represents less than 30% kill) | 0 (O represents less than 30% kill) | 2 (2 represents 60 - 90% kill) | 0 (O represents less than 30% kill) | – | 0 (O represents less than 30% kill) | – | – | 0 (O represents less than 30% kill) | – | – | – | 0 (key: O represents less than 30% kill; 1 represents 30 - 49% kill; 2 represents 60 - 90% kill; 3 represents over 90% kill; C indicates a chemosterilant effect.; A indicates an antifeeding effect.) | – | – | 2 (2 represents 60 - 90% kill) | 0 (key: O represents less than 30% kill; 1 represents 30 - 49% kill; 2 represents 60 - 90% kill; 3 represents over 90% kill; C indicates a chemosterilant effect.; A indicates an antifeeding effect.) | 0 (O represents less than 30% kill) | Amount of disease grading, disease B [1]: 0 (61 to 100); Amount of disease grading, disease C [8]: 3 (0 to 5); Amount of disease grading, disease D (Uncinula necator (vine)): 0 (61 to 100); Amount of disease grading, disease E [10]: 0 (61 to 100); Amount of disease grading, disease A [11]: 0 (61 to 100); % Kill of slugs [16]: 50%
Fc1nc(F)c(Cl)c(Nc2c(F)c(F)c(Br)c(F)c2F)c1Cl [Compound 30, 4(4-Bromo-2,3,5,6-tetrafluoroanilino)-3,5-dichloro-2,6-difluoropyridine] | 1 (26 to 60) | 3 (3 represents over 90% kill) | 3 (3 represents over 90% kill) | 0 (O represents less than 30% kill) | 3 (3 represents over 90% kill) | 2 (2 represents 60 - 90% kill) | – | 0 (O represents less than 30% kill) | – | – | 0 (O represents less than 30% kill) | – | 3 (0 to 5) | 0 (61 to 100) | 1 (key: O represents less than 30% kill; 1 represents 30 - 49% kill; 2 represents 60 - 90% kill; 3 represents over 90% kill; C indicates a chemosterilant effect.; A indicates an antifeeding effect.) | 0 (61 to 100) | 0 (61 to 100) | 3 (3 represents over 90% kill) | 0 (key: O represents less than 30% kill; 1 represents 30 - 49% kill; 2 represents 60 - 90% kill; 3 represents over 90% kill; C indicates a chemosterilant effect.; A indicates an antifeeding effect.) | 0 (O represents less than 30% kill) | % Kill of slugs [16]: 100%
